Measured values from ChEMBL document CHEMBL2413072, “Synthesis and in vitro anticancer studies of novel C-2 arylidene congeners of lantadenes” (2013).
Calls of active or inactive are those of the source. The rule behind the calls is not given here.

Tests used:
Format in all cases: functional
[1] = system: K562; assay: Growth inhibition of human K562 cells assessed as cell growth at 10 uM by sulforhodamine B assay; details: read-out: Activity
[2] = system: T47D; assay: Growth inhibition of human T47D cells assessed as growth inhibition at 10 uM by sulforhodamine B assay; details: read-out: GI
[3] = system: BT-549; assay: Growth inhibition of human BT549 cells assessed as growth inhibition at 10 uM by sulforhodamine B assay; details: read-out: GI
[4] = system: MDA-MB-231; assay: Growth inhibition of human MDA-MB-231 cells assessed as growth inhibition at 10 uM by sulforhodamine B assay; details: read-out: GI
[5] = system: MCF7; assay: Growth inhibition of human MCF7 cells assessed as growth inhibition at 10 uM by sulforhodamine B assay; details: read-out: GI
[6] = system: DU-145; assay: Growth inhibition of human DU145 cells assessed as growth inhibition at 10 uM by sulforhodamine B assay; details: read-out: GI
[7] = system: PC-3; assay: Growth inhibition of human PC3 cells assessed as growth inhibition at 10 uM by sulforhodamine B assay; details: read-out: GI
[8] = system: UO-31; assay: Growth inhibition of human UO31 cells assessed as growth inhibition at 10 uM by sulforhodamine B assay
[9] = system: CAKI-1; assay: Growth inhibition of human CAKI-1 cells assessed as growth inhibition at 10 uM by sulforhodamine B assay; details: read-out: GI
[10] = Growth inhibition of human NCI-ADR-RES cells assessed as growth inhibition at 10 uM by sulforhodamine B assay; details: read-out: GI
[11] = system: UACC-257; assay: Growth inhibition of human UACC257 cells assessed as growth inhibition at 10 uM by sulforhodamine B assay; details: read-out: GI
[12] = system: SK-MEL-2; assay: Growth inhibition of human SK-MEL-2 cells assessed as growth inhibition at 10 uM by sulforhodamine B assay; details: read-out: GI
[13] = system: SK-MEL-28; assay: Growth inhibition of human SK-MEL-28 cells assessed as growth inhibition at 10 uM by sulforhodamine B assay; details: read-out: GI
[14] = system: MDA-MB-435; assay: Growth inhibition of human MDA-MB-435 cells assessed as growth inhibition at 10 uM by sulforhodamine B assay; details: read-out: GI
[15] = system: M14; assay: Growth inhibition of human M14 cells assessed as growth inhibition at 10 uM by sulforhodamine B assay; details: read-out: GI
[16] = system: U-251; assay: Growth inhibition of human U251 cells assessed as growth inhibition at 10 uM by sulforhodamine B assay; details: read-out: GI
[17] = system: SNB-75; assay: Growth inhibition of human SNB75 cells assessed as growth inhibition at 10 uM by sulforhodamine B assay; details: read-out: GI
[18] = system: SNB-19; assay: Growth inhibition of human SNB19 cells assessed as growth inhibition at 10 uM by sulforhodamine B assay
[19] = system: SF-539; assay: Growth inhibition of human SF539 cells assessed as growth inhibition at 10 uM by sulforhodamine B assay; details: read-out: GI
[20] = system: SF-268; assay: Growth inhibition of human SF268 cells assessed as growth inhibition at 10 uM by sulforhodamine B assay; details: read-out: GI
[21] = system: KM12; assay: Growth inhibition of human KM12 cells assessed as growth inhibition at 10 uM by sulforhodamine B assay; details: read-out: GI
[22] = Growth inhibition of human HCC2998 cells assessed as growth inhibition at 10 uM by sulforhodamine B assay; details: HCC 2998, read-out: GI
[23] = system: COLO 205; assay: Growth inhibition of human COLO205 cells assessed as growth inhibition at 10 uM by sulforhodamine B assay; details: read-out: GI
[24] = system: NCI-H522; assay: Growth inhibition of human NCI-H522 cells assessed as growth inhibition at 10 uM by sulforhodamine B assay; details: read-out: GI
[25] = system: A549; assay: Growth inhibition of human A549/ATCC cells assessed as growth inhibition at 10 uM by sulforhodamine B assay; details: read-out: GI
[26] = system: SR; assay: Growth inhibition of human SR cells assessed as growth inhibition at 10 uM by sulforhodamine B assay; details: read-out: GI
[27] = system: T47D; assay: Growth inhibition of human T47D cells assessed as cell growth at 10 uM by sulforhodamine B assay; details: read-out: Activity
[28] = system: BT-549; assay: Growth inhibition of human BT549 cells assessed as cell growth at 10 uM by sulforhodamine B assay; details: read-out: Activity
[29] = Growth inhibition of human Hs 578T cells assessed as cell growth at 10 uM by sulforhodamine B assay; details: read-out: Activity
[30] = system: MDA-MB-231; assay: Growth inhibition of human MDA-MB-231 cells assessed as cell growth at 10 uM by sulforhodamine B assay; details: read-out: Activity
[31] = system: MCF7; assay: Growth inhibition of human MCF7 cells assessed as cell growth at 10 uM by sulforhodamine B assay; details: read-out: Activity
[32] = system: PC-3; assay: Growth inhibition of human PC3 cells assessed as cell growth at 10 uM by sulforhodamine B assay; details: read-out: Activity
[33] = system: SN12C; assay: Growth inhibition of human SN12C cells assessed as cell growth at 10 uM by sulforhodamine B assay; details: read-out: Activity
[34] = system: RXF 393; assay: Growth inhibition of human RXF393 cells assessed as cell growth at 10 uM by sulforhodamine B assay; details: read-out: Activity
[35] = system: ACHN; assay: Growth inhibition of human ACHN cells assessed as cell growth at 10 uM by sulforhodamine B assay; details: read-out: Activity
[36] = system: 786-0; assay: Growth inhibition of human 786-0 cells assessed as cell growth at 10 uM by sulforhodamine B assay; details: read-out: Activity
[37] = system: OVCAR-3; assay: Growth inhibition of human OVCAR3 cells assessed as cell growth at 10 uM by sulforhodamine B assay; details: read-out: Activity
[38] = system: UACC-62; assay: Growth inhibition of human UACC62 cells assessed as cell growth at 10 uM by sulforhodamine B assay; details: read-out: Activity
[39] = system: SK-MEL-5; assay: Growth inhibition of human SK-MEL-5 cells assessed as cell growth at 10 uM by sulforhodamine B assay; details: read-out: Activity
[40] = system: LOX IMVI; assay: Growth inhibition of human LOXIMVI cells assessed as cell growth at 10 uM by sulforhodamine B assay; details: read-out: Activity
[41] = system: U-251; assay: Growth inhibition of human U251 cells assessed as cell growth at 10 uM by sulforhodamine B assay; details: read-out: Activity
[42] = system: SF-539; assay: Growth inhibition of human SF539 cells assessed as cell growth at 10 uM by sulforhodamine B assay; details: read-out: Activity
[43] = system: KM12; assay: Growth inhibition of human KM12 cells assessed as cell growth at 10 uM by sulforhodamine B assay; details: read-out: Activity
[44] = system: HT-29; assay: Growth inhibition of human HT-29 cells assessed as cell growth at 10 uM by sulforhodamine B assay; details: read-out: Activity
[45] = system: NCI-H322M; assay: Growth inhibition of human NCI-H322M cells assessed as cell growth at 10 uM by sulforhodamine B assay; details: read-out: Activity
[46] = system: NCI-H23; assay: Growth inhibition of human NCI-H23 cells assessed as cell growth at 10 uM by sulforhodamine B assay; details: read-out: Activity
[47] = system: NCI-H226; assay: Growth inhibition of human NCI-H226 cells assessed as cell growth at 10 uM by sulforhodamine B assay; details: read-out: Activity
[48] = system: HOP-92; assay: Growth inhibition of human HOP92 cells assessed as cell growth at 10 uM by sulforhodamine B assay; details: read-out: Activity
[49] = Growth inhibition of human EKVX cells assessed as cell growth at 10 uM by sulforhodamine B assay; details: read-out: Activity

C/C=C(/C)C(=O)O[C@@H]1CC(C)(C)C[C@H]2C3=CC[C@@H]4[C@@]5(C)CC[C@H](O)C(C)(C)[C@@H]5CC[C@@]4(C)[C@]3(C)CC[C@@]12C(=O)O [Reduced Lantadene A]
growth at 10 µM [1]: 35.9%
inhibition of growth at 10 µM [2]: 24.3%
inhibition of growth at 10 µM [3]: 73.9%
inhibition of growth at 10 µM [4]: 77.8%
inhibition of growth at 10 µM [5]: 39%
inhibition of growth at 10 µM [6]: 25.1%
inhibition of growth at 10 µM [7]: 66.7%
growth inhibition (GI) [8]: Active
inhibition of growth at 10 µM [9]: 70.5%
inhibition of growth at 10 µM [10]: 30.2%
inhibition of growth at 10 µM [11]: 39.4%
inhibition of growth at 10 µM [12]: 45.9%
inhibition of growth at 10 µM [13]: 66.3%
inhibition of growth at 10 µM [14]: 35.1%
inhibition of growth at 10 µM [15]: 71.3%
inhibition of growth at 10 µM [16]: 61.8%
inhibition of growth at 10 µM [17]: 88%
growth inhibition (GI) [18]: Active
inhibition of growth at 10 µM [19]: 57%
inhibition of growth at 10 µM [20]: 74.1%
inhibition of growth at 10 µM [21]: 78.3%
inhibition of growth at 10 µM [22]: 73.6%
inhibition of growth at 10 µM [23]: 71.8%
inhibition of growth at 10 µM [24]: 50.3%
inhibition of growth at 10 µM [25]: 72.6%
inhibition of growth at 10 µM [26]: 38.1%
growth at 10 µM [27]: 75.7%
growth at 10 µM [28]: 26.1%
growth at 10 µM [29]: -17.2%
growth at 10 µM [30]: 22.2%
growth at 10 µM [31]: 61%
growth at 10 µM [32]: 33.3%
growth at 10 µM [33]: 5.77%
growth at 10 µM [34]: 22.8%
growth at 10 µM [35]: 8.12%
growth at 10 µM [36]: -42.9%
growth at 10 µM [37]: 32%
growth at 10 µM [38]: -28.1%
growth at 10 µM [39]: 53.2%
growth at 10 µM [40]: 42.7%
growth at 10 µM [41]: 38.2%
growth at 10 µM [42]: 43%
growth at 10 µM [43]: 21.7%
growth at 10 µM [44]: 55.8%
growth at 10 µM [45]: -8.43%
growth at 10 µM [46]: 64.7%
growth at 10 µM [47]: 42.1%
growth at 10 µM [48]: -54.2%
growth at 10 µM [49]: 36.5%

CC(C)=CC(=O)O[C@@H]1CC(C)(C)C[C@H]2C3=CC[C@@H]4[C@@]5(C)CC[C@H](O)C(C)(C)[C@@H]5CC[C@@]4(C)[C@]3(C)CC[C@@]12C(=O)O [Reduced Lantadene B]
growth at 10 µM [1]: 45.2%
inhibition of growth at 10 µM [2]: 13.3%
inhibition of growth at 10 µM [3]: 21.9%
inhibition of growth at 10 µM [4]: 18.7%
inhibition of growth at 10 µM [5]: 37.3%
inhibition of growth at 10 µM [6]: 13.4%
inhibition of growth at 10 µM [7]: 54.6%
inhibition of growth at 10 µM ([8]; read-out: GI): 39.1%
inhibition of growth at 10 µM [9]: 64.4%
inhibition of growth at 10 µM [10]: 45.5%
inhibition of growth at 10 µM [11]: < 10%
inhibition of growth at 10 µM [12]: 13.5%
inhibition of growth at 10 µM [13]: 11.7%
inhibition of growth at 10 µM [14]: < 10%
inhibition of growth at 10 µM [15]: < 10%
inhibition of growth at 10 µM [16]: 60.8%
inhibition of growth at 10 µM [17]: 26.8%
inhibition of growth at 10 µM ([18]; read-out: GI): 14.4%
inhibition of growth at 10 µM [19]: 45.3%
inhibition of growth at 10 µM [20]: < 10%
inhibition of growth at 10 µM [21]: 65.7%
inhibition of growth at 10 µM [22]: 38%
inhibition of growth at 10 µM [23]: 31.9%
inhibition of growth at 10 µM [24]: 32.4%
inhibition of growth at 10 µM [25]: 76.5%
inhibition of growth at 10 µM [26]: 29.8%
growth at 10 µM [27]: 86.7%
growth at 10 µM [28]: 78.1%
growth at 10 µM [29]: 85.5%
growth at 10 µM [30]: 81.3%
growth at 10 µM [31]: 62.7%
growth at 10 µM [32]: 45.4%
growth at 10 µM [33]: 50.9%
growth at 10 µM [34]: 85.2%
growth at 10 µM [35]: 46.3%
growth at 10 µM [36]: 61.8%
growth at 10 µM [37]: 73.9%
growth at 10 µM [38]: 67.2%
growth at 10 µM [39]: 61.5%
growth at 10 µM [40]: 53.2%
growth at 10 µM [41]: 39.2%
growth at 10 µM [42]: 54.7%
growth at 10 µM [43]: 34.3%
growth at 10 µM [44]: 49.3%
growth at 10 µM [45]: 59.7%
growth at 10 µM [46]: 63.4%
growth at 10 µM [47]: 78.7%
growth at 10 µM [48]: 43%
growth at 10 µM [49]: 47.7%
